One molecule from patent US20210276987A1, “PHARMACEUTICAL AGENTS FOR USE IN SMOKING AND TOBACCO CESSATION” (Washington State University, priority 2018, published 2021) can be followed below.

Structures can show the parent of a compound that is named as a salt.

Series [1] deals with CYPs 1A2, 2B6, 2C8, 2C9, 2C19, 2D6, 2E1 and 3A4.
The target of series [2] is CYP2E1 (Homo sapiens, UniProt P05181). To be noted: Table 6.
Series [3] deals with T1, CYP2A6 (Homo sapiens, UniProt P11509).
T1 sequence (P11509 1-494): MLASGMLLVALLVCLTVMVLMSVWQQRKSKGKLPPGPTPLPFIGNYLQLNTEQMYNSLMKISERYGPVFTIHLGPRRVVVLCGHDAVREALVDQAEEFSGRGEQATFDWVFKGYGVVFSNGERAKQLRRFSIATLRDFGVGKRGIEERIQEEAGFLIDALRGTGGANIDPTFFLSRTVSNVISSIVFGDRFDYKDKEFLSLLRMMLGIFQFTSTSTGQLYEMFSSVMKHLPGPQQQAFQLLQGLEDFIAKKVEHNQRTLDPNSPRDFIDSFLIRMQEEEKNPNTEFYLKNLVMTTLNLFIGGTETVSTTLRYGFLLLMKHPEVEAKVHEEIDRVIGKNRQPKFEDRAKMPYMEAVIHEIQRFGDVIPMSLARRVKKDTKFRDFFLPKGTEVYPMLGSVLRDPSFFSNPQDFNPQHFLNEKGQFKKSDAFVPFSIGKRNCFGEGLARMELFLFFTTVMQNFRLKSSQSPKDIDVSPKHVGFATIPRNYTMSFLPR
Briefly: biochemical.

Series [4] addresses T2, CYP2B6 (Homo sapiens, UniProt P20813).
T2 sequence (P20813 1-491): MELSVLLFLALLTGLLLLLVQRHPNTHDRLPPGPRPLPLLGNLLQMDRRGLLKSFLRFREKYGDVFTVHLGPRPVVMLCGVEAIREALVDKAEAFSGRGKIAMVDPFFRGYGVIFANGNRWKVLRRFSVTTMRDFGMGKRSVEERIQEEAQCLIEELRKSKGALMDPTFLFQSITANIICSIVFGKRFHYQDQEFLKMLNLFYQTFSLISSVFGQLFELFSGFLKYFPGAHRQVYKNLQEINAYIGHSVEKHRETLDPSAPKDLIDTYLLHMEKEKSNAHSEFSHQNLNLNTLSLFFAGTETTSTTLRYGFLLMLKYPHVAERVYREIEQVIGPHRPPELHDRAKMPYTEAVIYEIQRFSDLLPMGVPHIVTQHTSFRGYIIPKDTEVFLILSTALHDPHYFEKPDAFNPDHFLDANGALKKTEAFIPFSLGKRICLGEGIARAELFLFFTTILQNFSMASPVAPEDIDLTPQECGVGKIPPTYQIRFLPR
Particulars: Table 6.

Series [5] has as its target T3, CYP2C8 (Homo sapiens, UniProt P10632).
T3 sequence (P10632 1-490): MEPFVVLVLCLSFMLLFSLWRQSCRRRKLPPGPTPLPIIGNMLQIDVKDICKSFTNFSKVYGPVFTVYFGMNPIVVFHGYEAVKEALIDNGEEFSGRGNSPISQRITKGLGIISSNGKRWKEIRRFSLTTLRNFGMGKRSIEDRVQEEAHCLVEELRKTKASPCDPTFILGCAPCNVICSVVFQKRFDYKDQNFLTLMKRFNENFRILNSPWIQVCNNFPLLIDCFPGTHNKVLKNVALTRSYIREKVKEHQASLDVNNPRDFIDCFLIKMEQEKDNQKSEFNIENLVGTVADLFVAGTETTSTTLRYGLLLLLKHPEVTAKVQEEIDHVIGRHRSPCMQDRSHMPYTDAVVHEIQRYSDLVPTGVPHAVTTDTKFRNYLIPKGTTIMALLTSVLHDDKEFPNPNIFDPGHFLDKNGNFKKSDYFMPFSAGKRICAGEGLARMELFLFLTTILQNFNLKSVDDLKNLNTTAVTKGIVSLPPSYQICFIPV
Particulars: Table 6.

For series [6], the target named is CYP2C9 (Homo sapiens, UniProt P11712). Kind of series: CYP2C9 inhibition assay, human liver microsomes, diclofenac probe (cocktail). To be noted: Table 6.
Chain of CYP2C9 (P11712 whole entry): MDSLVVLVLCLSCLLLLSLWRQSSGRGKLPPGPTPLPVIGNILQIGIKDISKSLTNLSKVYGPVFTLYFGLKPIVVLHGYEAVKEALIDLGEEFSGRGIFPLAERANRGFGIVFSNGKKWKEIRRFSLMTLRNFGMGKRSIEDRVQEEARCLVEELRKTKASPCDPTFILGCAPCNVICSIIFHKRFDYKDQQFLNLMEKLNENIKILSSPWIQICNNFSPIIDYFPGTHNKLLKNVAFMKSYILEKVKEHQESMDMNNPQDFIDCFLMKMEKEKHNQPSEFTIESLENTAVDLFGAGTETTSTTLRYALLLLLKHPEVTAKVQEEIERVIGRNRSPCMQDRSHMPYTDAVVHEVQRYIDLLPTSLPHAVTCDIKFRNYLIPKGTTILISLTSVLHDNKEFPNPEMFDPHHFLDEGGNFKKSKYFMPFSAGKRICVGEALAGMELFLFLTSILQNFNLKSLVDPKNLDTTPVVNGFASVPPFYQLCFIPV
For series [7], the target named is CYP2D6 (Homo sapiens, UniProt P10635). Kind of series: CYP2D6 inhibition assay, human liver microsomes, dextromethorphan probe (cocktail). To be noted: Table 6. A general note: Liver microsomes are a subcellular fraction often used to study metabolism.
Chain of CYP2D6 (P10635 whole entry): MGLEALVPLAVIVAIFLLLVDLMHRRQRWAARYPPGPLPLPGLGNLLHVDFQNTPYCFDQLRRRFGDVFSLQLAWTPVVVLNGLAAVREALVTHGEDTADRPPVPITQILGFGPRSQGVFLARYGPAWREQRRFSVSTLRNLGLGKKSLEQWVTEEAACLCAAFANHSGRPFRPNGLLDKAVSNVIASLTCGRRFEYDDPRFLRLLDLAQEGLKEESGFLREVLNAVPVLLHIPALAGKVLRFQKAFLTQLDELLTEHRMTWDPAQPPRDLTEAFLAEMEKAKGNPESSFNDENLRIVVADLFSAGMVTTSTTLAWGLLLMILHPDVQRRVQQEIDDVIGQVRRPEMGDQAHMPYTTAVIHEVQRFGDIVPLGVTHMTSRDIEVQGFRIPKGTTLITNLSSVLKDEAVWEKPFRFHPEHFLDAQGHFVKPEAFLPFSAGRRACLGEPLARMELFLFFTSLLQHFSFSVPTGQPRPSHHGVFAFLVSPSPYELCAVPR
Series [8] can be described thus: in vitro. To be noted: human, microsomes, pH 7.4, T1/2 (min) in human liver microsomes. As for the experimental part: In vitro stability studies. […] Half-lives were calculated using the one-phase exponential decay equation (GraphPad).
For series [9], the target named is T4, CYP1A2 (Homo sapiens, UniProt P05177).
T4 sequence (P05177 1-516): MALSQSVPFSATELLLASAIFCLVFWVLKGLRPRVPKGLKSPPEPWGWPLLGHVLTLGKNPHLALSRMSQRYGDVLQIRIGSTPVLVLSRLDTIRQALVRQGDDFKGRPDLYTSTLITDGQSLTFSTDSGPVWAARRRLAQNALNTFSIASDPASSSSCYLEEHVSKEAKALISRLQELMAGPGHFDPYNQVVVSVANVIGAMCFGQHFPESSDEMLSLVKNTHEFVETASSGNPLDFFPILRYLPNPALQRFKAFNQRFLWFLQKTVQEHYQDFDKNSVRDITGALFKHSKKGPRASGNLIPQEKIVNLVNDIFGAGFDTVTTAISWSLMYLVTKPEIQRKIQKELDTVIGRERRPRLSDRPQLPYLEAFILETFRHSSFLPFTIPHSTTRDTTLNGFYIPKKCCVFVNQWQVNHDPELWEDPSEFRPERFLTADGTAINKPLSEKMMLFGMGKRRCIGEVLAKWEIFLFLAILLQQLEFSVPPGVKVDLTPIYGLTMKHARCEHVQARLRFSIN
Particulars: both, microsomes, pH 7.4.

For series [10], the target named is CYP2C19 (Homo sapiens, UniProt P33261). Kind of series: CYP2C19 inhibition assay, human liver microsomes, omeprazole probe (cocktail). To be noted: Table 6.
Chain of CYP2C19 (P33261 whole entry): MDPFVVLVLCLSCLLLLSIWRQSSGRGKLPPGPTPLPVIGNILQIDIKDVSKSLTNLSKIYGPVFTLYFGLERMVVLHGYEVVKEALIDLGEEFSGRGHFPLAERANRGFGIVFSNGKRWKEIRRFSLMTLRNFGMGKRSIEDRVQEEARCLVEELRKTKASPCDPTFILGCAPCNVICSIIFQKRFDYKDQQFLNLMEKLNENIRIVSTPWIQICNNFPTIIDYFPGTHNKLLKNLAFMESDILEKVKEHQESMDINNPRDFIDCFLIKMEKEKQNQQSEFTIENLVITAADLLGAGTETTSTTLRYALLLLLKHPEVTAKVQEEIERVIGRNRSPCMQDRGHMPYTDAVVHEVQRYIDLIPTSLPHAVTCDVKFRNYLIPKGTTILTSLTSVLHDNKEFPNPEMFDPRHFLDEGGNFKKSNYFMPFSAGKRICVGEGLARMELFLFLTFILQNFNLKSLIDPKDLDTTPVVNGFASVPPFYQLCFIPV
Series [11] concerns the target T1, CYP2A6. Particulars: CYP2A6.

Chain of CYP2E1 (P05181 whole entry): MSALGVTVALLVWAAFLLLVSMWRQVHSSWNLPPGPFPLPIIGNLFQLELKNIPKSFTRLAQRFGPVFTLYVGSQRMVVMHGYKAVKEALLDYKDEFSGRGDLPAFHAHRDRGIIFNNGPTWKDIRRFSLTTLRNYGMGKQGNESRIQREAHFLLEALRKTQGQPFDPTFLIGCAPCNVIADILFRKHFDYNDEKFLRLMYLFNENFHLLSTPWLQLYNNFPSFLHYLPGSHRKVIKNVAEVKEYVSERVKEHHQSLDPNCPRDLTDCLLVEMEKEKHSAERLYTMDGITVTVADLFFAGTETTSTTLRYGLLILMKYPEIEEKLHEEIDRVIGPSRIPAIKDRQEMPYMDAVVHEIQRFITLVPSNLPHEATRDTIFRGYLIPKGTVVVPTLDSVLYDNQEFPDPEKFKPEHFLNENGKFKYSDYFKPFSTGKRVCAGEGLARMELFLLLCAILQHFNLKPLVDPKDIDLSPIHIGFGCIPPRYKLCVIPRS

For `NCC#Cc1cnccc1Cl` [Compound L, 3-(4-chloropyridin-3-yl)prop-2-yn-1-amine Dihydrochloride], the “IC50 ratio CYPhepatic/CYP2A6 against all hepatic CYP enzymes tested” value in series [1] is listed as over 25. In [2], the “IC50 ratio CYP2E1/CYP2A6” value worked out at 10. Moreover, the IC50 (in general, the concentration that inhibits the measured activity by half) was 0.13 µM in [3] (IC50 against CYP2A6 (μM), Table 5, alkyne linker agents, pooled human liver microsomes, coumarin […]) and under 1 µM in series [3] (IC50 against CYP2A6, human liver microsomes). Besides, the “IC50 ratio CYP2B6/CYP2A6” value in series [4] is recorded as 24. For the same molecule, the “IC50 ratio CYP2C8/CYP2A6” value in series [5] is recorded as over 192. Moreover, the “IC50 ratio CYP2C9/CYP2A6” value in series [6] is over 385. For the same molecule, in [7], the “IC50 ratio CYP2D6/CYP2A6” value came out at 29. Further, the half-life (in general, the time needed for the level to fall by half in the phase considered) at 10 μM in [8] came out at 28 min. Besides, the “IC50 ratio CYP1A2/CYP2A6” value in series [9] came out at 33. The “IC50 ratio CYP2C19/CYP2A6” value in series [10] is reported as 61. Further, the “IC50 fold lower than that observed for the reference agent” value in series [11] came out at 1.2 fold.
